According to ChEMBL document CHEMBL1139296, “Pleuromutilin derivatives having a purine ring. Part 2: influence of the central spacer on the antibacterial activity against Gram-positive pathogens” (2009):

The compounds below were run on Streptococcus pyogenes (assay: Antimicrobial activity against Streptococcus pyogenes […] by NCCLS method).
Type: functional
For `C=C[C@]1(C)C[C@@H](OC(=O)CS[C@@H]2CCN(C(=O)CCn3cnc4c(N5CCNCC5)nc(N)nc43)C2)[C@]2(C)[C@H](C)CC[C@]3(CCC(=O)[C@@H]32)[C@@H](C)[C@@H]1O.Cl`, the MIC was 0.032 µg/mL. `C=C[C@]1(C)C[C@@H](OC(=O)CS[C@H]2CCN(C(=O)CCn3cnc4c(N5CCNCC5)nc(N)nc43)C2)[C@]2(C)[C@H](C)CC[C@]3(CCC(=O)[C@@H]32)[C@@H](C)[C@@H]1O.Cl` was tested, and the MIC was 0.016 µg/mL.

These compounds were tested on Streptococcus pneumoniae (assay: Antimicrobial activity against penicillin-resistant Streptococcus pneumoniae KT2524 by NCCLS method).
Type: functional
`C=C[C@]1(C)C[C@@H](OC(=O)CS[C@@H]2CCN(C(=O)CCn3cnc4c(N5CCNCC5)nc(N)nc43)C2)[C@]2(C)[C@H](C)CC[C@]3(CCC(=O)[C@@H]32)[C@@H](C)[C@@H]1O.Cl` showed an MIC of 0.125 µg/mL. Work on `C=C[C@]1(C)C[C@@H](OC(=O)CS[C@H]2CCN(C(=O)CCn3cnc4c(N5CCNCC5)nc(N)nc43)C2)[C@]2(C)[C@H](C)CC[C@]3(CCC(=O)[C@@H]32)[C@@H](C)[C@@H]1O.Cl` yielded an MIC of 0.125 µg/mL.

These compounds were tested on Staphylococcus aureus (assay: Antimicrobial activity against methicillin-susceptible Staphylococcus aureus Smith by NCCLS method).
Type: functional
Compound `C=C[C@]1(C)C[C@@H](OC(=O)CS[C@@H]2CCN(C(=O)CCn3cnc4c(N5CCNCC5)nc(N)nc43)C2)[C@]2(C)[C@H](C)CC[C@]3(CCC(=O)[C@@H]32)[C@@H](C)[C@@H]1O.Cl` has an MIC of 0.05 µg/mL. `C=C[C@]1(C)C[C@@H](OC(=O)CS[C@H]2CCN(C(=O)CCn3cnc4c(N5CCNCC5)nc(N)nc43)C2)[C@]2(C)[C@H](C)CC[C@]3(CCC(=O)[C@@H]32)[C@@H](C)[C@@H]1O.Cl` gave an MIC of 0.5 µg/mL.

Each compound was assayed on Staphylococcus aureus (assay: Antimicrobial activity against methicillin-resistant Staphylococcus aureus KMP9).
Type: functional
For `C=C[C@]1(C)C[C@@H](OC(=O)CS[C@@H]2CCN(C(=O)CCn3cnc4c(N5CCNCC5)nc(N)nc43)C2)[C@]2(C)[C@H](C)CC[C@]3(CCC(=O)[C@@H]32)[C@@H](C)[C@@H]1O.Cl`, the MIC was 2 µg/mL. In the case of `C=C[C@]1(C)C[C@@H](OC(=O)CS[C@H]2CCN(C(=O)CCn3cnc4c(N5CCNCC5)nc(N)nc43)C2)[C@]2(C)[C@H](C)CC[C@]3(CCC(=O)[C@@H]32)[C@@H](C)[C@@H]1O.Cl`, the MIC is reported as 1 µg/mL.

The compounds below were run on Streptococcus pneumoniae (assay: Antimicrobial activity against penicillin-susceptible Streptococcus pneumoniae ATCC 49619 by NCCLS method).
Type: functional
For `C=C[C@]1(C)C[C@@H](OC(=O)CS[C@@H]2CCN(C(=O)CCn3cnc4c(N5CCNCC5)nc(N)nc43)C2)[C@]2(C)[C@H](C)CC[C@]3(CCC(=O)[C@@H]32)[C@@H](C)[C@@H]1O.Cl`, the MIC was 0.063 µg/mL. Compound `C=C[C@]1(C)C[C@@H](OC(=O)CS[C@H]2CCN(C(=O)CCn3cnc4c(N5CCNCC5)nc(N)nc43)C2)[C@]2(C)[C@H](C)CC[C@]3(CCC(=O)[C@@H]32)[C@@H](C)[C@@H]1O.Cl` has an MIC of 0.063 µg/mL.

These compounds were tested on Enterococcus faecium (assay: Antimicrobial activity against vancomycin-resistant Enterococcus faecium KU1778 by NCCLS method).
Type: functional
`C=C[C@]1(C)C[C@@H](OC(=O)CS[C@@H]2CCN(C(=O)CCn3cnc4c(N5CCNCC5)nc(N)nc43)C2)[C@]2(C)[C@H](C)CC[C@]3(CCC(=O)[C@@H]32)[C@@H](C)[C@@H]1O.Cl` gave an MIC of 0.5 µg/mL. `C=C[C@]1(C)C[C@@H](OC(=O)CS[C@H]2CCN(C(=O)CCn3cnc4c(N5CCNCC5)nc(N)nc43)C2)[C@]2(C)[C@H](C)CC[C@]3(CCC(=O)[C@@H]32)[C@@H](C)[C@@H]1O.Cl` was tested, and the MIC was 0.25 µg/mL.

What follows are compounds tested on Moraxella catarrhalis (assay: Antimicrobial activity against Moraxella catarrhalis K1209 by NCCLS method).
Type: functional
In the case of `C=C[C@]1(C)C[C@@H](OC(=O)CS[C@@H]2CCN(C(=O)CCn3cnc4c(N5CCNCC5)nc(N)nc43)C2)[C@]2(C)[C@H](C)CC[C@]3(CCC(=O)[C@@H]32)[C@@H](C)[C@@H]1O.Cl`, the MIC is reported as 0.25 µg/mL. With `C=C[C@]1(C)C[C@@H](OC(=O)CS[C@H]2CCN(C(=O)CCn3cnc4c(N5CCNCC5)nc(N)nc43)C2)[C@]2(C)[C@H](C)CC[C@]3(CCC(=O)[C@@H]32)[C@@H](C)[C@@H]1O.Cl` the MIC was 0.25 µg/mL.

These compounds were tested on Haemophilus influenzae (assay: Antimicrobial activity against Haemophilus influenzae TH13 by NCCLS method).
Type: functional
`C=C[C@]1(C)C[C@@H](OC(=O)CS[C@@H]2CCN(C(=O)CCn3cnc4c(N5CCNCC5)nc(N)nc43)C2)[C@]2(C)[C@H](C)CC[C@]3(CCC(=O)[C@@H]32)[C@@H](C)[C@@H]1O.Cl` gave an MIC of 2 µg/mL. Compound `C=C[C@]1(C)C[C@@H](OC(=O)CS[C@H]2CCN(C(=O)CCn3cnc4c(N5CCNCC5)nc(N)nc43)C2)[C@]2(C)[C@H](C)CC[C@]3(CCC(=O)[C@@H]32)[C@@H](C)[C@@H]1O.Cl` has an MIC of 2 µg/mL.

The compounds below were run on Staphylococcus aureus (assay: Antimicrobial activity against methicillin-susceptible Staphylococcus aureus infected mouse assessed as survival rate administered iv after 1 hr of infection).
Type: functional
In the case of `C=C[C@]1(C)C[C@@H](OC(=O)CS[C@@H]2CCN(C(=O)CCn3cnc4c(N5CCNCC5)nc(N)nc43)C2)[C@]2(C)[C@H](C)CC[C@]3(CCC(=O)[C@@H]32)[C@@H](C)[C@@H]1O.Cl`, the ED50 is reported as 1.28 mg/kg. For `C=C[C@]1(C)C[C@@H](OC(=O)CS[C@H]2CCN(C(=O)CCn3cnc4c(N5CCNCC5)nc(N)nc43)C2)[C@]2(C)[C@H](C)CC[C@]3(CCC(=O)[C@@H]32)[C@@H](C)[C@@H]1O.Cl`, the ED50 was 3.16 mg/kg.
